{"source": "paper PMC12171880", "about": "“Selectivity and Safety Characterization of a Xanthine–Imidazothiazole Lead Structure: a Novel Tryptophan Hydroxylase Inhibitor of Peripheral Serotonin Synthesis” (ACS Pharmacology & Translational Science, 2025)", "key": {"Sprague–Dawley rats": {"tested_on": "Sprague–Dawley rats", "assay": "Dose-range finding study in rats, clinical chemistry", "type": "in vivo, rat", "conditions": "for ALT (GPT) / Albumin / Albumin/ globulin ratio / Alkaline phosphatase / Bile acids / Bilirubin total / Calcium / Chloride / Cholesterol / Creatine kinase / Creatinine / GLDH / Globulin / Glucose / Inorganic phosphate / Potassium / Sodium / Total protein / Triglycerides / Urea (BUN): day 8", "method": "TPT-004 was formulated in 0.5% (w/v) CMC-Na in water and administered by oral gavage (PO) twice daily (b.i.d.) with a 12 h interval to the treatment groups (3 male and 3 female Sprague–Dawley rats each) for 8 days (15 successive applications). Rats were dosed with 10, 45, and 200 mg/kg, i.e., daily doses of 20, 90, and 400 mg/kg. In addition, a control group was dosed at the same frequency as the vehicle (0.5% CMC-Na).\nA blood sample of 100 μL was obtained from each rat by puncturing one of the lateral tail veins under short isoflurane anesthesia. Blood was collected in tubes containing lithium heparin and gently mixed. After centrifugation (10 min at 3000g, 4 °C), plasma was separated and stored at −20 °C until LC-MS analysis. In addition, on day 8, the rats were exsanguinated by cardiac puncture under isoflurane anesthesia. A volume of 100 μL of blood (K3-EDTA) was used for immediate cell blood count, while the rest of the blood was mixed with lithium heparin and centrifuged to generate plasma for clinical chemistry analysis."}, "[1]": {"tested_on": "MC38 colorectal carcinoma model", "conditions": "mouse colorectal carcinoma; previous study; cited from earlier work"}, "[2]": {"conditions": "two rodent species; previously published pharmacokinetic data; cited from earlier work"}, "human recombinant PAH": {"target": "T1, human recombinant PAH (Homo sapiens, UniProt P00439)", "T1 construct": "expression vectors for full-length human PAH (UniProt entry P00439); made in house; host or cells: E. coli T7 Express (NEB) with pRARE2", "T1 sequence (P00439 1-452)": "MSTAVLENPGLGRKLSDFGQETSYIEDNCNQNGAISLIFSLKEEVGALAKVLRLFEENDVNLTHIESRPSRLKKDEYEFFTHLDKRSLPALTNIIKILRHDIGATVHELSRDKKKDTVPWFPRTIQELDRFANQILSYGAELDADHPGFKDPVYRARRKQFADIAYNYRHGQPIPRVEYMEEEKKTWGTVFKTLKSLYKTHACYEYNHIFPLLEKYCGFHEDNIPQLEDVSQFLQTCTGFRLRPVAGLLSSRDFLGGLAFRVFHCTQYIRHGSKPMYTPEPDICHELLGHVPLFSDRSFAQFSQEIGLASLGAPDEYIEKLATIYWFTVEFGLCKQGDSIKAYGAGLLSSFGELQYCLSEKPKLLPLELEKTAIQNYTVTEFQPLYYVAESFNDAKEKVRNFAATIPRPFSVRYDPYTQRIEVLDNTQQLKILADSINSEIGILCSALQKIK", "assay": "PAH enzymatic activity assay (fluorescence, 96-well)", "type": "biochemical"}, "brain serotonin turnover": {"tested_on": "brain serotonin turnover", "conditions": "mice, 1.5 mg/kg BID to 100 mg/kg BID; prior pharmacodynamic studies; cited from earlier work"}}, "data": [{"smiles": "CCn1c(=O)[nH]c(=O)c2c1nc(Cc1cn3cc(C)sc3n1)n2CC1COC1", "note": "[TPT-004]", "values": [{"measurement": "ALT (GPT)", "setting": "Sprague–Dawley rats; 10 mg/kg PO BID", "value": 49, "unit": "U/L"}, {"measurement": "Albumin", "setting": "Sprague–Dawley rats; 10 mg/kg PO BID", "value": 31, "unit": "g/L"}, {"measurement": "Albumin/ globulin ratio", "setting": "Sprague–Dawley rats; 10 mg/kg PO BID", "value": 1.33}, {"measurement": "Alkaline phosphatase", "setting": "Sprague–Dawley rats; 10 mg/kg PO BID", "value": 402, "unit": "U/L"}, {"measurement": "Bile acids", "setting": "Sprague–Dawley rats; 10 mg/kg PO BID", "value": 6.3, "unit": "µmol/L"}, {"measurement": "Bilirubin total", "setting": "Sprague–Dawley rats; 10 mg/kg PO BID", "value": 1.7, "unit": "µmol/L"}, {"measurement": "Calcium", "setting": "Sprague–Dawley rats; 10 mg/kg PO BID", "value": 2.6, "unit": "mmol/L"}, {"measurement": "Chloride", "setting": "Sprague–Dawley rats; 10 mg/kg PO BID", "value": 101, "unit": "mmol/L"}, {"measurement": "Cholesterol", "setting": "Sprague–Dawley rats; 10 mg/kg PO BID", "value": 2.25, "unit": "mmol/L"}, {"measurement": "Creatine kinase", "setting": "Sprague–Dawley rats; 10 mg/kg PO BID", "value": 406, "unit": "U/L"}, {"measurement": "Creatinine", "setting": "Sprague–Dawley rats; 10 mg/kg PO BID", "value": 24, "unit": "µmol/L"}, {"measurement": "GLDH", "setting": "Sprague–Dawley rats; 10 mg/kg PO BID", "value": 7, "unit": "U/L"}, {"measurement": "Globulin", "setting": "Sprague–Dawley rats; 10 mg/kg PO BID", "value": 23, "unit": "g/L"}, {"measurement": "Glucose", "setting": "Sprague–Dawley rats; 10 mg/kg PO BID", "value": 11.2, "unit": "mmol/L"}, {"measurement": "Inorganic phosphate", "setting": "Sprague–Dawley rats; 10 mg/kg PO BID", "value": 2.3, "unit": "mmol/L"}, {"measurement": "Potassium", "setting": "Sprague–Dawley rats; 10 mg/kg PO BID", "value": 4.7, "unit": "mmol/L"}, {"measurement": "Sodium", "setting": "Sprague–Dawley rats; 10 mg/kg PO BID", "value": 143, "unit": "mmol/L"}, {"measurement": "Total protein", "setting": "Sprague–Dawley rats; 10 mg/kg PO BID", "value": 54, "unit": "g/L"}, {"measurement": "Triglycerides", "setting": "Sprague–Dawley rats; 10 mg/kg PO BID", "value": 1.2, "unit": "mmol/L"}, {"measurement": "Urea (BUN)", "setting": "Sprague–Dawley rats; 10 mg/kg PO BID", "value": 6.4, "unit": "mmol/L"}, {"measurement": "ALT (GPT)", "setting": "Sprague–Dawley rats; 45 mg/kg PO BID", "value": 52, "unit": "U/L"}, {"measurement": "Albumin", "setting": "Sprague–Dawley rats; 45 mg/kg PO BID", "value": 30, "unit": "g/L"}, {"measurement": "Albumin/ globulin ratio", "setting": "Sprague–Dawley rats; 45 mg/kg PO BID", "value": 1.34}, {"measurement": "Alkaline phosphatase", "setting": "Sprague–Dawley rats; 45 mg/kg PO BID", "value": 434, "unit": "U/L"}, {"measurement": "Bile acids", "setting": "Sprague–Dawley rats; 45 mg/kg PO BID", "value": 16.6, "unit": "µmol/L"}, {"measurement": "Bilirubin total", "setting": "Sprague–Dawley rats; 45 mg/kg PO BID", "value": 1.7, "unit": "µmol/L"}, {"measurement": "Calcium", "setting": "Sprague–Dawley rats; 45 mg/kg PO BID", "value": 2.7, "unit": "mmol/L"}, {"measurement": "Chloride", "setting": "Sprague–Dawley rats; 45 mg/kg PO BID", "value": 101, "unit": "mmol/L"}, {"measurement": "Cholesterol", "setting": "Sprague–Dawley rats; 45 mg/kg PO BID", "value": 2.5, "unit": "mmol/L"}, {"measurement": "Creatine kinase", "setting": "Sprague–Dawley rats; 45 mg/kg PO BID", "value": 415, "unit": "U/L"}, {"measurement": "Creatinine", "setting": "Sprague–Dawley rats; 45 mg/kg PO BID", "value": 26, "unit": "µmol/L"}, {"measurement": "GLDH", "setting": "Sprague–Dawley rats; 45 mg/kg PO BID", "value": 6, "unit": "U/L"}, {"measurement": "Globulin", "setting": "Sprague–Dawley rats; 45 mg/kg PO BID", "value": 23, "unit": "g/L"}, {"measurement": "Glucose", "setting": "Sprague–Dawley rats; 45 mg/kg PO BID", "value": 12.3, "unit": "mmol/L"}, {"measurement": "Inorganic phosphate", "setting": "Sprague–Dawley rats; 45 mg/kg PO BID", "value": 2.4, "unit": "mmol/L"}, {"measurement": "Potassium", "setting": "Sprague–Dawley rats; 45 mg/kg PO BID", "value": 4.7, "unit": "mmol/L"}, {"measurement": "Sodium", "setting": "Sprague–Dawley rats; 45 mg/kg PO BID", "value": 142, "unit": "mmol/L"}, {"measurement": "Total protein", "setting": "Sprague–Dawley rats; 45 mg/kg PO BID", "value": 53, "unit": "g/L"}, {"measurement": "Triglycerides", "setting": "Sprague–Dawley rats; 45 mg/kg PO BID", "value": 1.7, "unit": "mmol/L"}, {"measurement": "Urea (BUN)", "setting": "Sprague–Dawley rats; 45 mg/kg PO BID", "value": 6.0, "unit": "mmol/L"}, {"measurement": "ALT (GPT)", "setting": "Sprague–Dawley rats; 200 mg/kg PO BID", "value": 67, "unit": "U/L"}, {"measurement": "Albumin", "setting": "Sprague–Dawley rats; 200 mg/kg PO BID", "value": 30, "unit": "g/L"}, {"measurement": "Albumin/ globulin ratio", "setting": "Sprague–Dawley rats; 200 mg/kg PO BID", "value": 1.32}, {"measurement": "Alkaline phosphatase", "setting": "Sprague–Dawley rats; 200 mg/kg PO BID", "value": 313, "unit": "U/L"}, {"measurement": "Bile acids", "setting": "Sprague–Dawley rats; 200 mg/kg PO BID", "value": 20.4, "unit": "µmol/L"}, {"measurement": "Bilirubin total", "setting": "Sprague–Dawley rats; 200 mg/kg PO BID", "value": 1.7, "unit": "µmol/L"}, {"measurement": "Calcium", "setting": "Sprague–Dawley rats; 200 mg/kg PO BID", "value": 2.6, "unit": "mmol/L"}, {"measurement": "Chloride", "setting": "Sprague–Dawley rats; 200 mg/kg PO BID", "value": 101, "unit": "mmol/L"}, {"measurement": "Cholesterol", "setting": "Sprague–Dawley rats; 200 mg/kg PO BID", "value": 2.6, "unit": "mmol/L"}, {"measurement": "Creatine kinase", "setting": "Sprague–Dawley rats; 200 mg/kg PO BID", "value": 321, "unit": "U/L"}, {"measurement": "Creatinine", "setting": "Sprague–Dawley rats; 200 mg/kg PO BID", "value": 24, "unit": "µmol/L"}, {"measurement": "GLDH", "setting": "Sprague–Dawley rats; 200 mg/kg PO BID", "value": 7, "unit": "U/L"}, {"measurement": "Globulin", "setting": "Sprague–Dawley rats; 200 mg/kg PO BID", "value": 23, "unit": "g/L"}, {"measurement": "Glucose", "setting": "Sprague–Dawley rats; 200 mg/kg PO BID", "value": 13.5, "unit": "mmol/L"}, {"measurement": "Inorganic phosphate", "setting": "Sprague–Dawley rats; 200 mg/kg PO BID", "value": 2.4, "unit": "mmol/L"}, {"measurement": "Potassium", "setting": "Sprague–Dawley rats; 200 mg/kg PO BID", "value": 4.9, "unit": "mmol/L"}, {"measurement": "Sodium", "setting": "Sprague–Dawley rats; 200 mg/kg PO BID", "value": 143, "unit": "mmol/L"}, {"measurement": "Total protein", "setting": "Sprague–Dawley rats; 200 mg/kg PO BID", "value": 53, "unit": "g/L"}, {"measurement": "Triglycerides", "setting": "Sprague–Dawley rats; 200 mg/kg PO BID", "value": 1.4, "unit": "mmol/L"}, {"measurement": "Urea (BUN)", "setting": "Sprague–Dawley rats; 200 mg/kg PO BID", "value": 7.0, "unit": "mmol/L"}, {"measurement": "clinical chemistry parameters, overall", "setting": "Sprague–Dawley rats; 10, 45, or 200 mg/kg BID PO, 8 days", "value": "no relevant difference"}, {"measurement": "dose needed to achieve the therapeutic effects", "setting": "[1]", "value": 50, "unit": "mg/kg BID"}, {"measurement": "blood-brain barrier penetration", "setting": "[2]", "value": "exceptionally low blood-brain barrier penetration"}, {"measurement": "Mean PAH activity [%]", "setting": "human recombinant PAH; 10 nM", "value": 94.75, "unit": "%"}, {"measurement": "IC50", "setting": "human recombinant PAH; 10 nM to 30 μM, 175 μM L-Phe, 10 μM BH4", "value": 404, "unit": "nM"}, {"measurement": "Mean PAH activity [%]", "setting": "human recombinant PAH; 30 nM", "value": 91.12, "unit": "%"}, {"measurement": "Mean PAH activity [%]", "setting": "human recombinant PAH; 100 nM", "value": 82.79, "unit": "%"}, {"measurement": "Mean PAH activity [%]", "setting": "human recombinant PAH; 300 nM", "value": 58.10, "unit": "%"}, {"measurement": "Mean PAH activity [%]", "setting": "human recombinant PAH; 1 μM", "value": 25.53, "unit": "%"}, {"measurement": "Mean PAH activity [%]", "setting": "human recombinant PAH; 3 μM", "value": 9.81, "unit": "%"}, {"measurement": "Mean PAH activity [%]", "setting": "human recombinant PAH; 10 μM", "value": 4.37, "unit": "%"}, {"measurement": "Mean PAH activity [%]", "setting": "human recombinant PAH; 30 μM", "value": 2.49, "unit": "%"}, {"measurement": "Selectivity ratio PAH IC50 : TPH1 IC50", "setting": "human recombinant PAH; calculated from determined IC50 values", "value": 12.09}, {"measurement": "IC50", "setting": "human recombinant PAH; supplementary CSV", "value": 404, "unit": "nM"}, {"measurement": "balance of brain serotonin turnover", "setting": "brain serotonin turnover", "value": "did not show an altered balance of brain serotonin turnover"}]}]}
